These are literature values, as cited in patent US20050208598A1 (priority 2004, published 2005).

The target in this data set is avidin (Gallus gallus, UniProt P02701). The conditions noted are these: read-out: Kd of binding to avidin.
Sequence of avidin (P02701 25-152, species assumed): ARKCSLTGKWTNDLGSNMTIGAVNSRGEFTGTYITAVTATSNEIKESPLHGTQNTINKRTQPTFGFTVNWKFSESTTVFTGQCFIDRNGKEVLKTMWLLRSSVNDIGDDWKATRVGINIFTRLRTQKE

Usually Kd stands for the concentration at which binding is half-saturated. `O=C(O)c1ccccc1N=Nc1ccc(O)cc1` [HABA, 2-(4-hydroxyphenylazo)benzoic acid]: the Kd was approximately 6 µM. For `C[C@@H]1NC(=O)N[C@@H]1CCCCCC(=O)O` [desthiobiotin], the Kd is approximately 0.1 µM.
